Reference: patent publication US5968951A, “Benzenesulfonamide derivatives as bradykinin antagonists” (Fournier Industrie et Sante, priority 1995, dated 1999)
Structures can show the parent of a compound that is named as a salt.

Target: T1, guinea-pig B2 receptor (Cavia porcellus, UniProt O70526)
T1 construct: Ileum segments are isolated from male guinea-pigs of the Dunkin-Hartley strain; tissue Iffa Credo, l'Arbresle, France (animals); host or cells: ileum membranes of male Dunkin-Hartley guinea-pigs
T1 sequence (O70526 1-372): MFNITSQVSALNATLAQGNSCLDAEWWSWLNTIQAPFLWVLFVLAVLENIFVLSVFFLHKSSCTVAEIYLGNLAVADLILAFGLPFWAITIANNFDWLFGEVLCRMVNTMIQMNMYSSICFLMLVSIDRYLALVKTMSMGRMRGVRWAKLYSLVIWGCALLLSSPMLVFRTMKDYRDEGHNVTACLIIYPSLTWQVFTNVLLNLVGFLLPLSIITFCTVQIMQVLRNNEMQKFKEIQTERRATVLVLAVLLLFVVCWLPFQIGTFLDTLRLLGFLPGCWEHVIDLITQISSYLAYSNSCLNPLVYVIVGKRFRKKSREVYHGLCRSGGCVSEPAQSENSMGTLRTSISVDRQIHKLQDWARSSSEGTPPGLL
Assay: [3H]-bradykinin binding to guinea-pig ileum membranes
Conditions: test compound 10^-6 M; [3H]-bradykinin 120 pM; 50 μg membrane protein; 90 min at 20° C.; read-out: Activity % (percentage inhibition of the binding of [3H]-bradykinin)
Description: We used the following pharmacological test: Ileum segments are isolated from male guinea-pigs of the Dunkin-Hartley strain (Iffa Credo, l'Arbresle, France) and ground in the following TES buffer: TES 25 mM, 1,10-phenanthroline 1 mM (pH 6.8), bacitracin 140 μg/ml, BSA 1 g/l. The membranes are then isolated by centrifugation (18,000 rpm; 20 min; 4° C.). The binding studies are carried out in the TES buffer using [^3 H]-bradykinin (120 pM) and 50 μg of membrane protein per test (final volume 500 μl) with an equilibrium time of 90 min at 20° C.

Row | SMILES | inhibition at 1 µM [%]
1 | Cc1ccc2cccc(OCc3c(Cl)ccc(S(=O)(=O)N(C)Cc4c[nH]c5ccccc45)c3Cl)c2n1 [Example 7, 2,4-Dichloro-N-methyl-N-[(indol-3-yl)methyl]-3-[(2-methylquinolin-8yl)oxymethyl]benzenesulfonamide] | 97.6
2 | Cc1ccc2cccc(OCc3c(Cl)ccc(S(=O)(=O)N(C)Cc4ccc(N)cc4)c3Cl)c2n1 [Example 8, 2,4-Dichloro-N-methyl-N-[(4-aminophenyl)methyl]-3-[(2-methylquinolin-8-yl)oxymethyl]benzenesulfonamide dihydrochloride] | 99.5
3 | Cc1ccc2cccc(OCc3c(Cl)ccc(S(=O)(=O)N(C)Cc4ccc(O)cc4)c3Cl)c2n1 [Example 9, 2,4-Dichloro-N-methyl-N-[(4-hydroxyphenyl)methyl]-3-[(2-methylquinolin-8-yl)oxymethyl]benzenesulfonamide] | 99.5
4 | Cc1ccc2cccc(OCc3c(Cl)ccc(S(=O)(=O)N(C)Cc4cccc(C(N)=O)c4)c3Cl)c2n1 [Example 10, 2,4-Dichloro-N-methyl-N-[[3-(aminocarbonyl)phenyl]methyl]-3[(2-methylquinolin-8-yl)oxymethyl]benzenesulfonamide] | 99.8
5 | CNC(=O)c1cccc(CN(C)S(=O)(=O)c2ccc(Cl)c(COc3cccc4ccc(C)nc34)c2Cl)c1 [Example 11, 2,4-Dichloro-N-methyl-N-[[3-(methylaminocarbonyl)phenyl]methyl]-3-[(2-methylquinolin-8-yl)oxymethyl]benzenesulfonamide] | 100
6 | Cc1ccc2cccc(OCc3c(Cl)ccc(S(=O)(=O)N(C)Cc4cccc(C(=O)N(C)C)c4)c3Cl)c2n1 [Example 12, 2,4-Dichloro-N-methyl-N-[[3-[(dimethylamino)carbonyl]phenyl]methyl]-3-[(2-methylquinolin-8-yl)oxymethyl]benzenesulfonamide] | 96.9
7 | Cc1ccc2cccc(OCc3c(Cl)ccc(S(=O)(=O)N(C)Cc4cccc(C(=O)NCCCO)c4)c3Cl)c2n1 [Example 13, 2,4-Dichloro-N-methyl-N-[[3-[(3-hydroxypropyl)aminocarbonyl]phenyl]-methyl]-3-[(2-methylquinolin-8-yl)oxymethyl]benzenesulfonamide] | 99.3
8 | Cc1ccc2cccc(OCc3c(Cl)ccc(S(=O)(=O)N(C)Cc4cccc(C(=O)NCCN(C)C)c4)c3Cl)c2n1 [Example 14, 2,4-Dichloro-N-methyl-N-[[3-[[2-(dimethylamino)ethyl]aminocarbonyl]-phenyl]-methyl]-3-[(2-methylquinolin-8-yl)oxymethyl]benzenesulfonamide] | 100
9 | Cc1ccc2cccc(OCc3c(Cl)ccc(S(=O)(=O)N(C)CCc4ccccc4)c3Cl)c2n1 [Example 15, 2,4Dichloro-N-methyl-N-(2-phenylethyl)-3-[(2-methylquinolin-8-yl)oxymethyl]benzenesulfonamide] | 97.9
10 | Cc1ccc2cccc(OCc3c(Cl)ccc(S(=O)(=O)N(C)CCCCCCCN)c3Cl)c2n1 [Example 16, 2,4-Dichloro-N-methyl-N-(7-aminoheptyl)-3-[(2-methylquinolin-8-yl)oxymethyl]benzenesulfonamide bis(trifluoroacetate)] | 100
11 | CNC(=O)CCCCCN(C)S(=O)(=O)c1ccc(Cl)c(COc2cccc3ccc(C)nc23)c1Cl [Example 19, 2,4-Dichloro-N-methyl-N-[6-(methylamino)-6-oxohexyl]-3-[(2-methylquinolin-8-yl)oxymethyl]benzenesulfonamide] | 99
12 | Cc1ccc2cccc(OCc3c(Cl)ccc(S(=O)(=O)N(C)CCCCCCCCO)c3Cl)c2n1 [Example 20, 2,4-Dichloro-N-methyl-N-(8-hydroxyoctyl)-3-[(2-methylquinolin-8-yl)oxymethyl]benzenesulfonamide] | 95.7
13 | Cc1ccc2cccc(OCc3c(Cl)ccc(S(=O)(=O)N(C)CCCCCCCCCCCCO)c3Cl)c2n1 [Example 21, 2,4-Dichloro-N-methyl-N-(12-hydroxydodecyl)-3-[(2-methylquinolin-8-yl)oxymethyl]benzenesulfonamide] | 94.3
14 | Cc1ccc2cccc(OCc3c(Cl)ccc(S(=O)(=O)N(CCCCN)C(C)(C)C)c3Cl)c2n1 [Example 23, N-(4-Aminobutyl)-N-(1,1-dimethylethyl)-2,4-dichloro-3-[(2-methylquinolin-8-yl)oxymethyl]benzenesulfonamide] | 92.8
15 | CC(=O)NCCCCN(C(C)(C)C)S(=O)(=O)c1ccc(Cl)c(COc2cccc3ccc(C)nc23)c1Cl [Example 24] | 90.5
16 | Cc1ccc2cccc(OCc3c(Cl)ccc(S(=O)(=O)N(CCCCCCCO)Cc4ccccc4)c3Cl)c2n1 [Example 25, 2,4-Dichloro-N-(phenylmethyl)-N-(7-hydroxyheptyl)-3-[(2-methylquinolin-8-yl]oxymethyl]benzenesulfonamide] | 95.1
17 | CNC(=O)CCCCCCCN(Cc1ccccc1)S(=O)(=O)c1ccc(Cl)c(COc2cccc3ccc(C)nc23)c1Cl [Example 28, 2,4-Dichloro-N-(phenylmethyl)-N-[8-(methylamino)-8-oxooctyl]-3-[(2-methylquinolin-8-yl)oxymethyl]benzenesulfonamide] | 98
